Here are results for 13 molecules from patent US9499550B2 (BRISTOL-MYERS SQUIBB COMPANY, priority 2012, dated 2016).

In assay [1] the test system is HCV genotype 1a (H77 strain) replicon in HUH-7 cells. In words: HCV replicon luciferase reporter assay, genotype 1a. Particulars: Hepatitis C virus, Huh-7, 72 h, HCV genotype 1a replicon luciferase, 3 days incubation, read-out: LE_1a (EC50, range). It is filed as cell-based. In outline:
(§1)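 Replicon inhibition for both genotypes was measured as Renilla luciferase signal (EnduRen, 7.5 μM final, 2 h) after 3-day, 37° C exposure of replicon-bearing HUH-7 cells in 4% FCS DMEM, 0.5% DMSO. The 1b construct carries S1179I; the 1a H77 construct carries P1496L and S2204I. Twenty-point, 3-fold dilutions were fitted four-parametrically for EC50, and CC50 was taken from multiplexed Cell Titer-Blue.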
A general note: In antiviral work, replicon cells carry a viral genome segment that copies itself.

The subject of assay [2] is HCV genotype 1b (Con1) replicon in HUH-7 cells. The experiment in a line: HCV replicon luciferase reporter assay, genotype 1b. Conditions: Hepatitis C virus, Huh-7, 72 h, HCV genotype 1b replicon luciferase, 3 days incubation, read-out: LE_1b (EC50, range). It is filed as cell-based. In outline: as §1

As a reminder, the EC50 is the midpoint of the concentration-response curve. `[2H]C([2H])([2H])C(OC(=O)N[C@@H]1C(=O)N2C[C@H](Oc3nccc4cc(OCCC)ccc34)C[C@H]2C(=O)N[C@]2(C(=O)NS(=O)(=O)C3CC3)C[C@H]2/C=C\CC[C@@H](C)C[C@H]1C)(C([2H])([2H])[2H])C(F)(F)F` [Compound 5173]: the EC50 in assay [1] and in assay [2] was < 5.46 nM throughout.
With `[2H]C([2H])([2H])C(OC(=O)N[C@@H]1C(=O)N2C[C@H](Oc3nccc4cc(OC)ccc34)CC2C(=O)N[C@]2(C(=O)NS(=O)(=O)C3(C)CC3)C[C@H]2/C=C\CC[C@H](C)C[C@H]1C)(C([2H])([2H])[2H])C(F)(F)F` (stereo partly drawn) [Compound 5174, 1,1,1,3,3,3-hexadeutero-2-(trifluoromethyl)propan-2-yl((2R,6S,7R,9S,13aS,14aR,16aS,Z)-2-((6-methoxyisoquinolin-1-yl)oxy)-7,9-dimethyl-14a-(((1-methylcyclopropyl)sulfonyl)carbamoyl)-5,16-dioxo-1,2,3,5,6,7,8,9,10,11,13a,14,14a,15,16,16a-hexadecahydrocyclopropa[e]pyrrolo[1,2-a][1,4]diazacyclopentadecin-6-yl)carbamate], the EC50 in assay [1] and in assay [2] was < 5.46 nM each time.
As for `[2H]C([2H])([2H])C(OC(=O)N[C@@H]1C(=O)N2C[C@H](Oc3nccc4cc(OC)ccc34)CC2C(=O)N[C@]2(C(=O)NS(=O)(=O)C3(C)CC3)C[C@H]2/C=C\CC[C@@H](C)C[C@H]1C)(C([2H])([2H])[2H])C(F)(F)F` (stereo partly drawn) [Compound 5175, 1,1,1,3,3,3-hexadeutero-2-(trifluoromethyl)propan-2-yl((2R,6S,7R,9R,13aS,14aR,16aS,Z)-2-((6-methoxyisoquinolin-1-yl)oxy)-7,9-dimethyl-14a-(((1-methylcyclopropyl)sulfonyl)carbamoyl)-5,16-dioxo-1,2,3,5,6,7,8,9,10,11,13a,14,14a,15,16,16a-hexadecahydrocyclopropa[e]pyrrolo[1,2-a][1,4]diazacyclopentadecin-6-yl)carbamate], the EC50 in assay [1] and in assay [2] was < 5.46 nM in each case.
With `[2H]C([2H])([2H])C(C)(OC(=O)N[C@@H]1C(=O)N2C[C@H](Oc3nccc4cc(OC)ccc34)CC2C(=O)N[C@]2(C(=O)NS(=O)(=O)C3(C)CC3)C[C@H]2/C=C\CC[C@H](C)C[C@H]1C)C([2H])([2H])[2H]` (stereo partly drawn) [Compound 5176, 1,1,1,3,3,3-hexadeutero-2-methylpropan-2-yl((2R,6S,7R,9S,13aS,14aR,16aS,Z)-2-((6-methoxyisoquinolin-1-yl)oxy)-7,9-dimethyl-14a-(((1-methylcyclopropyl)sulfonyl)carbamoyl)-5,16-dioxo-1,2,3,5,6,7,8,9,10,11,13a,14,14a,15,16,16a-hexadecahydrocyclopropa[e]pyrrolo[1,2-a][1,4]diazacyclopentadecin-6-yl)carbamate], the figures for the EC50 in assay [1] and in assay [2] were 4.82 to 103 nM and < 5.46 nM, respectively.
With `[2H]C([2H])([2H])C(C)(OC(=O)N[C@@H]1C(=O)N2C[C@H](Oc3nccc4cc(OC)ccc34)CC2C(=O)N[C@]2(C(=O)NS(=O)(=O)C3(C)CC3)C[C@H]2/C=C\CC[C@@H](C)C[C@H]1C)C([2H])([2H])[2H]` (stereo partly drawn) [Compound 5177, 1,1,1,3,3,3-hexadeutero-2-methylpropan-2-yl((2R,6S,7R,9R,13aS,14aR,16aS,Z)-2-((6-methoxyisoquinolin-1-yl)oxy)-7,9-dimethyl-14a-(((1-methylcyclopropyl)sulfonyl)carbamoyl)-5,16-dioxo-1,2,3,5,6,7,8,9,10,11,13a,14,14a,15,16,16a-hexadecahydrocyclopropa[e]pyrrolo[1,2-a][1,4]diazacyclopentadecin-6-yl)carbamate], the EC50 in assay [1] and in assay [2] was < 5.46 nM each time.
For `COc1ccc2c(O[C@@H]3C[C@H]4C(=O)N[C@]5(C(=O)NS(=O)(=O)C6(C)CC6)C[C@H]5/C=C\CC[C@H](C)C[C@@H](C)[C@H](NC(=O)NC(C)(C)C)C(=O)N4C3)nccc2c1` [Compound 5178, (2R,6S,7R,9S,13aS,14aR,16aS,Z)-6-(3-(tert-butyl)ureido)-2-((6-methoxyisoquinolin-1-yl)oxy)-7,9-dimethyl-N-((1-methylcyclopropyl)sulfonyl)-5,16-dioxo-1,2,3,5,6,7,8,9,10,11,13a,14,14a,15,16,16a-hexadecahydrocyclopropa[e]pyrrolo[1,2-a][1,4]diazacyclopentadecine-14a-carboxamide], the EC50 in assay [1] was 4.82 to 103 nM; in assay [2], < 5.46 nM.
Regarding `COc1ccc2c(O[C@@H]3C[C@H]4C(=O)N[C@]5(C(=O)NS(=O)(=O)C6(C)CC6)C[C@H]5/C=C\CC[C@@H](C)C[C@@H](C)[C@H](NC(=O)NC(C)(C)C)C(=O)N4C3)nccc2c1` [Compound 5179, (2R,6S,7R,9R,13aS,14aR,16aS,Z)-6-(3-(tert-butyl)ureido)-2-((6-methoxyisoquinolin-1-yl)oxy)-7,9-dimethyl-N-((1-methylcyclopropyl)sulfonyl)-5,16-dioxo-1,2,3,5,6,7,8,9,10,11,13a,14,14a,15,16,16a-hexadecahydrocyclopropa[e]pyrrolo[1,2-a][1,4]diazacyclopentadecine-14a-carboxamide], the EC50 in assay [1] and in assay [2] was < 5.46 nM each time.
Consider `COc1ccc2c(O[C@@H]3C[C@H]4C(=O)N[C@]5(C(=O)NS(=O)(=O)C6(C)CC6)C[C@H]5/C=C\CC[C@H](C)C[C@@H](C)[C@H](NC(=O)c5ccc(N(C)C)cc5)C(=O)N4C3)nccc2c1` [Compound 5180, (2R,6S,7R,9S,13aS,14aR,16aS,Z)-6-(4-(dimethylamino)benzamido)-2-((6-methoxyisoquinolin-1-yl)oxy)-7,9-dimethyl-N-((1-methylcyclopropyl)sulfonyl)-5,16-dioxo-1,2,3,5,6,7,8,9,10,11,13a,14,14a,15,16,16a-hexadecahydrocyclopropa[e]pyrrolo[1,2-a][1,4]diazacyclopentadecine-14a-carboxamide], for which the EC50 in assay [1] and in assay [2] was < 5.46 nM each time.
Turning to `COc1ccc2c(O[C@@H]3C[C@H]4C(=O)N[C@]5(C(=O)NS(=O)(=O)C6(C)CC6)C[C@H]5/C=C\CC[C@@H](C)C[C@@H](C)[C@H](NC(=O)c5ccc(N(C)C)cc5)C(=O)N4C3)nccc2c1` [Compound 5181, (2R,6S,7R,9R,13aS,14aR,16aS,Z)-6-(4-(dimethylamino)benzamido)-2-((6-methoxyisoquinolin-1-yl)oxy)-7,9-dimethyl-N-((1-methylcyclopropyl)sulfonyl)-5,16-dioxo-1,2,3,5,6,7,8,9,10,11,13a,14,14a,15,16,16a-hexadecahydrocyclopropa[e]pyrrolo[1,2-a][1,4]diazacyclopentadecine-14a-carboxamide], the concentration for a half-maximal effect (EC50) in assay [1] and in assay [2] was < 5.46 nM each time.
Regarding `C[C@H]1CC/C=C\[C@@H]2C[C@@]2(C(=O)NS(=O)(=O)C2CC2)NC(=O)[C@@H]2C[C@@H](Oc3nc4ccccc4c4ccccc34)CN2C(=O)[C@@H](NC(=O)OC(C)(C)C)[C@H](C)C1` [Compound 5182, tert-butyl ((2R,6S,7R,9S,13aS,14aR,16aS,Z)-14a-((cyclopropylsulfonyl)carbamoyl)-7,9-dimethyl-5,16-dioxo-2-(phenanthridin-6-yloxy)-1,2,3,5,6,7,8,9,10,11,13a,14,14a,15,16,16a-hexadecahydrocyclopropa[e]pyrrolo[1,2-a][1,4]diazacyclopentadecin-6-yl)carbamate], the EC50 in assay [1] and in assay [2] was < 5.46 nM each time.
Consider `C[C@@H]1CC/C=C\[C@@H]2C[C@@]2(C(=O)NS(=O)(=O)C2CC2)NC(=O)[C@@H]2C[C@@H](Oc3nc4ccccc4c4ccccc34)CN2C(=O)[C@@H](NC(=O)OC(C)(C)C)[C@H](C)C1` [Compound 5183, tert-butyl ((2R,6S,7R,9R,13aS,14aR,16aS,Z)-14a-((cyclopropylsulfonyl)carbamoyl)-7,9-dimethyl-5,16-dioxo-2-(phenanthridin-6-yloxy)-1,2,3,5,6,7,8,9,10,11,13a,14,14a,15,16,16a-hexadecahydrocyclopropa[e]pyrrolo[1,2-a][1,4]diazacyclopentadecin-6-yl)carbamate], for which the 50% effective concentration (EC50) in assay [1] and in assay [2] was < 5.46 nM in each case.
Take `C[C@@H]1CC/C=C\[C@@H]2C[C@@]2(C(=O)NS(=O)(=O)C2CC2)NC(=O)C2C[C@@H](Oc3nc4ccccc4c4ccccc34)CN2C(=O)[C@@H](NC(=O)OC(C)(C)C(F)(F)F)[C@H](C)C1` (stereo partly drawn) [Compound 5185, 1,1,1-trifluoro-2-methylpropan-2-yl((2R,6S,7R,9R,13aS,14aR,16aS,Z)-14a-((cyclopropylsulfonyl)carbamoyl)-7,9-dimethyl-5,16-dioxo-2-(phenanthridin-6-yloxy)-1,2,3,5,6,7,8,9,10,11,13a,14,14a,15,16,16a-hexadecahydrocyclopropa[e]pyrrolo[1,2-a][1,4]diazacyclopentadecin-6-yl)carbamate]: the EC50 in assay [1] and in assay [2] was < 5.46 nM in each case.
With `COc1ccc2c(O[C@@H]3C[C@H]4C(=O)N[C@]5(C(=O)NS(=O)(=O)C6CC6)C[C@H]5/C=C\CC[C@H](C)C[C@@H](C)[C@H](NC(=O)OC(C)(C)C)C(=O)N4C3)nc(-c3ccccc3)cc2c1` [Compound 5186, tert-butyl ((2R,6S,7R,9S,13aS,14aR,16aS,Z)-14a-((cyclopropylsulfonyl)carbamoyl)-2-((6-methoxy-3-phenylisoquinolin-1-yl)oxy)-7,9-dimethyl-5,16-dioxo-1,2,3,5,6,7,8,9,10,11,13a,14,14a,15,16,16a-hexadecahydrocyclopropa[e]pyrrolo[1,2-a][1,4]diazacyclopentadecin-6-yl)carbamate], the EC50 in assay [1] and in assay [2] was < 5.46 nM in each case.
